pIC50: −log10 of the molar value.
Assays:
TTK = target: T1, TTK (Homo sapiens, UniProt P33981); test: TTK enzyme activity, ADP-Glo kinase assay; type: biochemical; parameters: purchased SignalChem T20-10G; conditions: purified human TTK, ATP 10 μM, 25° C., 2 hours
T1 sequence (P33981 1-857): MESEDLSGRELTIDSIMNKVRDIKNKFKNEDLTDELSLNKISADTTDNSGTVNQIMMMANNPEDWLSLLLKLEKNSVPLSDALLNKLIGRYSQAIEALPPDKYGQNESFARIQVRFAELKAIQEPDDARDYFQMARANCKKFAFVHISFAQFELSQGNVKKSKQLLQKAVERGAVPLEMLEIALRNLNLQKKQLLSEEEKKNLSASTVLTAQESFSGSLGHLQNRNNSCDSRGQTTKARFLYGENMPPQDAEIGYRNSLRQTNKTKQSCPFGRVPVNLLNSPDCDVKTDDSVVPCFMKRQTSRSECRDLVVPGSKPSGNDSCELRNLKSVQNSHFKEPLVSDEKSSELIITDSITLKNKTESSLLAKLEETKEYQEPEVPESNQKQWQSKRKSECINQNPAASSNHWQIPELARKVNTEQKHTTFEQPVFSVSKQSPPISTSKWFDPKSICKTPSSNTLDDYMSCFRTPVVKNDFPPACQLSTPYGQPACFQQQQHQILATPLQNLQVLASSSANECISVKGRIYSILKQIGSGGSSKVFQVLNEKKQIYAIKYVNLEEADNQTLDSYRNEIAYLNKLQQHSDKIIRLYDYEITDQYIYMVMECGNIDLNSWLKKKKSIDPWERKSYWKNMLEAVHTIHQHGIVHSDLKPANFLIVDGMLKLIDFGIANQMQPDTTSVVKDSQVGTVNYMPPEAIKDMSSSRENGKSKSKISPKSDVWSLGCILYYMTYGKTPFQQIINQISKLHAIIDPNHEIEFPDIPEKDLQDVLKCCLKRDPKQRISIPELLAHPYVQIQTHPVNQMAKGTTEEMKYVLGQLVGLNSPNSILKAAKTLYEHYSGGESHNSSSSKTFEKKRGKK
Summary of the method: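 ADP-Glo read-out; percent inhibition at each compound concentration was relative to the solvent-only control. The reactions contained 25 ng enzyme, 0.2 μg substrate and 10 μM ATP in 40 mM Tris-HCl pH 7.4 with 20 mM MgCl2, 0.5 mg/mL BSA and 50 μM DTT, and ran 2 h at 25 °C.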

MDA-MB-231 cells = test: Inhibition of proliferation of triple-negative breast cancer cells, CellTiter-Glo; type: cell-based; conditions: Homo sapiens, 120 h; MDA-MB-231, cultured for 5 days
Summary of the method: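 MDA-MB-231 cells pre-cultured 24 h (5% CO2, 37 °C), then exposed to compound for 5 days at 12 three-fold dilutions, final 10 μM to 0.05 nM. Viability read by CellTiter-Glo luminescence after 10 min at 37 °C; growth inhibition calculated relative to untreated solvent-control cells.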

SHP-77 = test: Inhibition of proliferation of small cell lung cancer cells, CellTiter-Glo; type: cell-based; conditions: Homo sapiens, SHP77, 120 h; SHP-77, cultured for 5 days
Summary of the method: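 SHP-77 cells at 2,000–3,000 cells/well, cultured 24 h at 37° C, 5% CO2, then given 12 threefold compound dilutions, final 10 μM to 0.05 nM, for 5 days. Viability by CellTiter-Glo luminescence relative to solvent control. GI50 from concentration–response.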

pIC50 (TTK)	GI50 (MDA-MB-231 cells)	GI50 (SHP-77)	Compound
> 7.30	< 0.1 µM	< 0.1 µM	COCCNc1nc(Nc2ccc(-c3cnn(C)c3)cc2OC)nc2[nH]cc(C#N)c12 [Example 97, 2-((2-methoxy-4-(1-methyl-1H-pyrazol-4-yl)phenyl)amino)-4-((2-methoxyethyl)amino)-7H-pyrrolo[2,3-d] pyrimidine-5-carbonitrile]
> 7.30	0.1 to 1 µM	< 0.1 µM	COCCNc1nc(Nc2ccc(-c3nncn3C)cc2OC)nc2[nH]cc(C#N)c12 [Example 95, 2-((2-methoxy-4-(4-methyl-4H-1,2,4-triazol-3-yl)phenyl)amino)-4-((2-methoxyethyl)amino)-7H-pyrrolo[2,3-d] pyrimidine-5-carbonitrile]
6.00 to 6.70	0.1 to 1 µM	0.1 to 1 µM	COc1cc(-c2ccnn2C)ccc1Nc1nc(C2=CCCCC2)c2c(C#N)c[nH]c2n1 [Example 129, 4-(cyclohex-1-en-1-yl)-2-((2-methoxy-4-(1-methyl-1H-pyrazol-5-yl)phenyl)amino)-7H-pyrrolo[2,3-d] pyrimidine-5-carbonitrile]
> 7.30	< 0.1 µM	< 0.1 µM	N#Cc1c[nH]c2nc(Nc3ccc(N4CCCCS4(=O)=O)c(F)c3)nc(NC3CCOCC3)c12 [Example 58, 2-((4-(1,1-dioxido-1,2-thiazinan-2-yl)-3-fluorophenyl)amino)-4-((tetrahydro-2H-pyran-4-yl)amino)-7H-pyrrolo[2,3-d] pyrimidine-5-carbonitrile]
> 7.30	< 0.1 µM	< 0.1 µM	COc1cc(-c2nncn2C)ccc1Nc1nc(NC2CCCC(F)(F)C2)c2c(C#N)c[nH]c2n1 (stereo not drawn) [Example 154, 4-((3,3-difluorocyclohexyl)amino)-2-((2-methoxy-4-(4-methyl-4H-1,2,4-triazol-3-yl)phenyl)amino)-7H-pyrrolo[2,3-d] pyrimidine-5-carbonitrile]
6.70 to 7.30	< 0.1 µM	< 0.1 µM	COc1cc(-c2c(C)noc2C)ccc1Nc1nc(NC2CCOCC2)c2c(C(F)(F)F)c[nH]c2n1 [Example 131, N^2-(4-(3,5-dimethylisoxazol-4-yl)-2-methoxyphenyl)-N^4-(tetrahydro-2H-pyran-4-yl)-5-(trifluoromethyl)-7H-pyrrolo[2,3-d] pyrimidine-2,4-diamine]
> 7.30	< 0.1 µM	< 0.1 µM	COC[C@@H](C)Nc1nc(Nc2ccc(-c3ccnn3C)c3c2OCCO3)nc2[nH]cc(C#N)c12 [Example 101]
> 7.30	< 0.1 µM	< 0.1 µM	COc1cc(Nc2nc(NC3CCOC(C)(C)C3)c3c(C#N)c[nH]c3n2)ccc1-c1ccnn1C (stereo not drawn) [Example 162, 4-((2,2-dimethyltetrahydro-2H-pyran-4-yl)amino)-2-((3-methoxy-4-(1-methyl-1H-pyrazol-5-yl)phenyl)amino)-7H-pyrrolo[2,3-d] pyrimidine-5-carbonitrile]
> 7.30	< 0.1 µM	< 0.1 µM	COc1cc(-c2c(C)noc2C)ccc1Nc1nc(NC2CCOCC2)c2c(C#N)c[nH]c2n1 [Example 91]
6.70 to 7.30	< 0.1 µM	< 0.1 µM	Cn1nccc1-c1ccc(Nc2cc(NC3CCCC3)c3c(C#N)c[nH]c3n2)c2c1OCCO2 [Example 88, 4-(cyclopentylamino)-6-((8-(1-methyl-1H-pyrazol-5-yl)-2,3-dihydrobenzo[b][1,4]dioxin-5-yl)amino)-1H-pyrrolo[2,3-b] pyridine-3-carbonitrile]
> 7.30	< 0.1 µM	< 0.1 µM	Cn1cc(-c2ccc(Nc3nc(NC4CCOCC4)c4c(C#N)c[nH]c4n3)c3c2OCCO3)cn1 [Example 89, 2-((8-(1-methyl-1H-pyrazol-4-yl)-2,3-dihydrobenzo[b][1,4]dioxin-5-yl)amino)-4-((tetrahydro-2H-pyran-4-yl)amino)-7H-pyrrolo[2,3-d] pyrimidine-5-carbonitrile]
> 7.30	< 0.1 µM	< 0.1 µM	COC[C@@H](C)Nc1nc(Nc2ccc(-c3cnn(C)c3)c3c2OCCO3)nc2[nH]cc(C#N)c12 [Example 169]
> 7.30	< 0.1 µM	< 0.1 µM	N#Cc1c[nH]c2nc(Nc3ccc(N4CCCCS4(=O)=O)cc3)nc(NC3CCCC3)c12 [Example 156, 4-(cyclopentylamino)-2-((4-(1,1-dioxido-1,2-thiazinan-2-yl)phenyl)amino)-7H-pyrrolo[2,3-d] pyrimidine-5-carbonitrile]
> 7.30	< 0.1 µM	< 0.1 µM	COc1cc(-c2c(C)noc2C)ccc1Nc1nc(NC2C[C@H]3CC[C@@H]2C3)c2c(C#N)c[nH]c2n1 (stereo partly drawn) [Example 146, 4-(((1R,4S)-bicyclo[2.2.1]heptan-2-yl)amino)-2-((4-(3,5-dimethylisoxazol-4-yl)-2-methoxyphenyl)amino)-7H-pyrrolo[2,3-d] pyrimidine-5-carbonitrile]
6.70 to 7.30	< 0.1 µM	< 0.1 µM	COc1cc(Nc2nc(NC3CCCCC3)c3c(C#N)c[nH]c3n2)ccc1-c1cnn(C)c1 [Example 137, 4-(cyclohexylamino)-2-((3-methoxy-4-(1-methyl-1H-pyrazol-4-yl)phenyl)amino)-7H-pyrrolo[2,3-d] pyrimidine-5-carbonitrile]
> 7.30	< 0.1 µM	< 0.1 µM	Cn1nccc1-c1ccc(Nc2nc(NC3CCCC3)c3c(C#N)c[nH]c3n2)c2c1OCCO2 [Example 38, 4-(cyclopentylamino)-2-((8-(1-methyl-1H-pyrazol-5-yl)-2,3-dihydrobenzo[b][1,4]dioxin-5-yl)amino)-7H-pyrrolo[2,3-d] pyrimidine-5-carbonitrile]
> 7.30	< 0.1 µM	< 0.1 µM	COc1cc(-c2ccnn2C)ccc1Nc1nc(NC2CCCC2)c2c(C#N)c[nH]c2n1 [Example 16, 4-(cyclopentylamino)-2-((2-methoxy-4-(1-methyl-1H-pyrazol-5-yl)phenyl)amino)-7H-pyrrolo[2,3-d] pyrimidine-5-carbonitrile]
6.70 to 7.30	0.1 to 1 µM	0.1 to 1 µM	COc1cc(Nc2nc(NC3CCCC3)c3c(C#N)c[nH]c3n2)ccc1-c1ccnn1C [Example 120, 4-(cyclopentylamino)-2-((3-methoxy-4-(1-methyl-1H-pyrazol-5-yl)phenyl)amino)-7H-pyrrolo[2,3-d] pyrimidine-5-carbonitrile]
6.70 to 7.30	< 0.1 µM	< 0.1 µM	Cn1nccc1-c1ccc(Nc2nc(NC3CCCC(F)(F)C3)c3c(C#N)c[nH]c3n2)c2c1OCCO2 (stereo not drawn) [Example 153]
> 7.30	0.1 to 1 µM	< 0.1 µM	CN(C)S(=O)(=O)CCNc1nc(Nc2ccc(-c3ccnn3C)c3c2OCCO3)nc2[nH]cc(C#N)c12 [Example 85, 2-((5-cyano-2-((8-(1-methyl-1H-pyrazol-5-yl)-2,3-dihydrobenzo[b][1,4]dioxin-5-yl)amino)-7H-pyrrolo[2,3-d]pyrimidin-4-yl)amino)-N,N-dimethylethane-1-sulfonamide]
> 7.30	< 0.1 µM	< 0.1 µM	N#Cc1c[nH]c2nc(Nc3ccc(N4CCCS4(=O)=O)cc3)nc(NC3CCCC3)c12 [Example 158, 4-(cyclopentylamino)-2-((4-(1,1-dioxidoisothiazolidin-2-yl)phenyl)amino)-7H-pyrrolo[2,3-d] pyrimidine-5-carbonitrile]
> 7.30	0.1 to 1 µM	0.1 to 1 µM	C=CC(=O)Nc1cc(-c2ccnn2C)ccc1Nc1nc(NC2CCCC2)c2c(C#N)c[nH]c2n1 [Example 142, N-(2-((5-cyano-4-(cyclopentylamino)-7H-pyrrolo[2,3-d]pyrimidin-2-yl)amino)-5-(1-methyl-1H-pyrazol-5-yl)phenyl)acrylamide]
> 7.30	< 0.1 µM	< 0.1 µM	COc1cc(-c2cnn(C)c2)c(F)cc1Nc1nc(NC2CCOCC2)c2c(C#N)c[nH]c2n1 [Example 124, 2-((5-fluoro-2-methoxy-4-(1-methyl-1H-pyrazol-4-yl)phenyl)amino)-4-((tetrahydro-2H-pyran-4-yl)amino)-7H-pyrrolo[2,3-d] pyrimidine-5-carbonitrile]
